Non-standard residues stand in square brackets, D forms with d. Residues, ends and D or L forms follow the SMILES beside them. *: point of attachment. DOTA = O=C(O)CN1CCN(CC(=O)O)CCN(CC(=O)*)CCN(CC(=O)O)CC1; Bpa = N[C@@H](Cc1ccc(C(=O)c2ccccc2)cc1)C(=O)O; Ala(4-thiazolyl) = N[C@@H](Cc1cscn1)C(=O)O; d2Nal = N[C@H](Cc1ccc2ccccc2c1)C(=O)O; azaGly = NNC(=O)O; Sar = CNCC(=O)O
These compounds were tested on LHRH binding sites on human ovarian cancer cells (EFO-27). Settings: not given.
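Further: Cell-associated radioactivity on confluent EFO-27 monolayers in 96-well plates, measured by microplate scintillation counting.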

Row | SMILES | EC50 [nM]
1 | CNCC(=O)N[C@@H](CCCNC(=N)N)C(=O)N[C@@H](Cc1c[nH]c2ccccc12)C(=O)N[C@@H](CO)C(=O)N[C@@H](Cc1c[nH]cn1)C(=O)N[C@H](CCCNC(=N)N)C(=O)N[C@@H](Cc1c[nH]c2ccccc12)C(=O)N[C@@H](Cc1ccc(C(=O)c2ccccc2)cc1)C(=O)N1CCC[C@H]1C(=O)NCCOCCOCCNC(=O)CN1CCN(CC(=O)O)CCN(CC(=O)O)CCN(CC(=O)O)CC1 [compound 3043] | 330 ± 180
2 | N=C(N)NCCC[C@H](NC(=O)[C@@H](Cc1ccc2ccccc2c1)NC(=O)CN1CCN(CC(=O)O)CCN(CC(=O)O)CCN(CC(=O)O)CC1)C(=O)N[C@@H](Cc1c[nH]c2ccccc12)C(=O)N[C@@H](CO)C(=O)N[C@@H](Cc1c[nH]cn1)C(=O)N[C@H](CCCNC(=N)N)C(=O)N[C@@H](Cc1c[nH]c2ccccc12)C(=O)O [compound 3046] (HELM PEPTIDE1{[O=C(O)CN1CCN(CC(=O)O)CCN(CC(=O)[*:2])CCN(CC(=O)O)CC1].[O=C([C@@H](Cc1ccc2ccccc2c1)N[*:1])[*:2]].R.W.S.H.[dR].W}$$$$V2.0; N-terminus assumed) | 15900
3 | C[C@H](NC(=O)[C@H](CO)NC(=O)[C@H](Cc1c[nH]c2ccccc12)NC(=O)[C@H](CCCNC(=N)N)NC(=O)[C@@H](Cc1ccc2ccccc2c1)NC(=O)CN1CCN(CC(=O)O)CCN(CC(=O)O)CCN(CC(=O)O)CC1)C(=O)N[C@H](CCCNC(=N)N)C(=O)N[C@@H](Cc1c[nH]c2ccccc12)C(=O)N[C@@H](Cc1ccc(C(=O)c2ccccc2)cc1)C(=O)N1CCC[C@H]1C(=O)NNC(N)=O [compound 3028] ({DOTA}-[d2Nal]RWSA[dR]W[Bpa]P[azaGly]-NH2) | 1090
4 | N=C(N)NCCC[C@H](NC(=O)[C@H](N)Cc1ccc2ccccc2c1)C(=O)N[C@@H](Cc1c[nH]c2ccccc12)C(=O)N[C@@H](CO)C(=O)N[C@@H](Cc1c[nH]cn1)C(=O)N[C@H](CCCNC(=N)N)C(=O)N[C@@H](Cc1c[nH]c2ccccc12)C(=O)N[C@@H](Cc1ccc(C(=O)c2ccccc2)cc1)C(=O)N1CCC[C@H]1C(=O)NCCCCNC(=O)CN1CCN(CC(=O)O)CCN(CC(=O)O)CCN(CC(=O)O)CC1 [compound 3042] | 200
5 | N=C(N)NCCC[C@H](NC(=O)[C@@H](Cc1ccc2ccccc2c1)NC(=O)CN1CCN(CC(=O)O)CCN(CC(=O)O)CCN(CC(=O)O)CC1)C(=O)N[C@@H](Cc1c[nH]c2ccccc12)C(=O)N[C@@H](CO)C(=O)N[C@@H](Cc1c[nH]cn1)C(=O)N[C@H](CCCNC(=N)N)C(=O)N[C@@H](Cc1c[nH]c2ccccc12)C(=O)N[C@@H](Cc1ccc(C(=O)c2ccccc2)cc1)C(=O)N1CCC[C@H]1C(=O)NC(=N)N [compound 2984] | 400
6 | CC(C)C[C@H](NC(=O)[C@H](CCCNC(=N)N)NC(=O)[C@@H](Cc1ccc2ccccc2c1)NC(=O)CN1CCN(CC(=O)O)CCN(CC(=O)O)CCN(CC(=O)O)CC1)C(=O)N[C@@H](CO)C(=O)N[C@@H](Cc1c[nH]cn1)C(=O)N[C@H](CCCNC(=N)N)C(=O)N[C@@H](Cc1c[nH]c2ccccc12)C(=O)N[C@@H](Cc1ccc(C(=O)c2ccccc2)cc1)C(=O)N1CCC[C@H]1C(=O)NNC(N)=O [compound 3108] ({DOTA}-[d2Nal]RLSH[dR]W[Bpa]P[azaGly]-NH2) | 560
7 | CNCC(=O)N[C@@H](CCCNC(=N)N)C(=O)N[C@@H](Cc1c[nH]c2ccccc12)C(=O)N[C@@H](CO)C(=O)N[C@@H](Cc1c[nH]cn1)C(=O)N[C@H](CCCNC(=N)N)C(=O)N[C@@H](Cc1c[nH]c2ccccc12)C(=O)N[C@@H](Cc1ccc(C(=O)c2ccccc2)cc1)C(=O)N1CCC[C@H]1C(=O)NCCCN1CCN(CCCNC(=O)CN2CCN(CC(=O)O)CCN(CC(=O)O)CCN(CC(=O)O)CC2)CC1 [compound 3044] | 240 ± 80

The remaining lines, values ahead:

Row | EC50 [nM] | SMILES
8 | 1900 | CN(CC(=O)N[C@@H](Cc1c[nH]cn1)C(=O)N[C@@H](Cc1c[nH]c2ccccc12)C(=O)N[C@@H](CO)C(=O)N[C@@H](Cc1c[nH]cn1)C(=O)N[C@H](CCCNC(=N)N)C(=O)N[C@@H](Cc1c[nH]c2ccccc12)C(=O)N[C@@H](Cc1ccc(C(=NO)c2ccccc2)cc1)C(=O)N1CCC[C@H]1C(=O)NNC(N)=O)C(=O)CN1CCN(CC(=O)O)CCN(CC(=O)O)CCN(CC(=O)O)CC1 [BRU-2907]
9 | 15000 | CN(CC(=O)N[C@@H](Cc1cscn1)C(=O)N[C@@H](Cc1c[nH]c2ccccc12)C(=O)N[C@@H](CO)C(=O)N[C@@H](Cc1cscn1)C(=O)N[C@H](CCCNC(=N)N)C(=O)N[C@@H](Cc1c[nH]c2ccccc12)C(=O)N[C@@H](Cc1ccc(C(=O)c2ccccc2)cc1)C(=O)N1CCC[C@H]1C(=O)NNC(N)=O)C(=O)CN1CCN(CC(=O)O)CCN(CC(=O)O)CCN(CC(=O)O)CC1 [BRU-2762] ({DOTA}-[Sar][Ala(4-thiazolyl)]WS[Ala(4-thiazolyl)][dR]W[Bpa]P[azaGly]-NH2; C-terminus assumed)
10 | ≤ 200 | CNCC(=O)N[C@@H](CCCNC(=N)N)C(=O)N[C@@H](Cc1c[nH]c2ccccc12)C(=O)N[C@@H](CO)C(=O)N[C@@H](Cc1c[nH]cn1)C(=O)N[C@H](CCCNC(=N)N)C(=O)N[C@@H](Cc1c[nH]c2ccccc12)C(=O)N[C@@H](Cc1ccc(C(=O)c2ccccc2)cc1)C(=O)N1CCC[C@H]1C(=O)N1CCCCC1CNC(=O)CN1CCN(CC(=O)O)CCN(CC(=O)O)CCN(CC(=O)O)CC1 (some centres unmarked) [BRU-3102]
11 | > 30000 | N=C(N)NCCC[C@H](NC(=O)[C@H](N)Cc1ccc2ccccc2c1)C(=O)N[C@@H](Cc1c[nH]c2ccccc12)C(=O)N[C@@H](CO)C(=O)N[C@@H](Cc1c[nH]cn1)C(=O)N[C@H](CCCNC(=N)N)C(=O)N[C@@H](Cc1c[nH]c2ccccc12)C(=O)N[C@@H](Cc1ccc(C(=O)c2ccccc2)cc1)C(=O)N1CCC[C@H]1C(=O)NCC(=O)NCCCCNC(=O)CN1CCN(CC(=O)O)CCN(CC(=O)O)CCN(CC(=O)O)CC1 [BRU-2990]
12 | 230 to 500 | CNCC(=O)N[C@@H](CCCNC(=N)N)C(=O)N[C@@H](Cc1c[nH]c2ccccc12)C(=O)N[C@@H](CO)C(=O)N[C@@H](Cc1c[nH]cn1)C(=O)N[C@H](CCCNC(=N)N)C(=O)N[C@@H](Cc1c[nH]c2ccccc12)C(=O)N[C@@H](Cc1ccc(C(=O)c2ccccc2)cc1)C(=O)N1CCC[C@H]1C(=O)NCCCN1CCN(CCCNC(=O)CN2CCN(CC(=O)O)CCN(CC(=O)O)CCN(CC(=O)O)CC2)CC1 [BRU-3044]
13 | ≤ 200 | CNCC(=O)N[C@@H](CCCNC(=N)N)C(=O)N[C@@H](Cc1c[nH]c2ccccc12)C(=O)N[C@@H](CO)C(=O)N[C@@H](Cc1c[nH]cn1)C(=O)N[C@H](CCCNC(=N)N)C(=O)N[C@@H](Cc1c[nH]c2ccccc12)C(=O)N[C@@H](Cc1ccc(C(=O)c2ccccc2)cc1)C(=O)N1CCC[C@H]1C(=O)NCCNC(=O)CN1CCN(CC(=O)O)CCN(CC(=O)O)CCN(CC(=O)O)CC1 [BRU-3103]
14 | 630 | CN(CC(=O)N[C@@H](Cc1c[nH]cn1)C(=O)N[C@@H](Cc1c[nH]c2ccccc12)C(=O)N[C@@H](CO)C(=O)N[C@@H](Cc1c[nH]cn1)C(=O)N[C@H](CCCNC(=N)N)C(=O)N[C@@H](Cc1c[nH]c2ccccc12)C(=O)N[C@@H](CC1CCCCC1)C(=O)N1CCC[C@H]1C(=O)NNC(N)=O)C(=O)CN1CCN(CC(=O)O)CCN(CC(=O)O)CCN(CC(=O)O)CC1 [BRU-2718]
15 | 1210 | CC(C)C[C@H](NC(=O)[C@H](CO)NC(=O)[C@H](Cc1c[nH]c2ccccc12)NC(=O)[C@H](CCCNC(=N)N)NC(=O)[C@@H](Cc1ccc2ccccc2c1)NC(=O)CN1CCN(CC(=O)O)CCN(CC(=O)O)CCN(CC(=O)O)CC1)C(=O)N[C@H](CCCNC(=N)N)C(=O)N[C@@H](Cc1c[nH]c2ccccc12)C(=O)N[C@@H](Cc1ccc(C(=O)c2ccccc2)cc1)C(=O)N1CCC[C@H]1C(=O)NNC(N)=O [BRU-3029] ({DOTA}-[d2Nal]RWSL[dR]W[Bpa]P[azaGly]-NH2; C-terminus assumed)

Same assay, conditions: BRU-2441 vs BRU-2439; BRU-2666 vs Sar1 analog; BRU-3072 vs Pro9 analog

Row | SMILES | times more potent than the comparator analog
16 | CNCC(=O)N[C@@H](Cc1c[nH]cn1)C(=O)N[C@@H](Cc1c[nH]c2ccccc12)C(=O)N[C@@H](CO)C(=O)N[C@@H](Cc1cnc[nH]1)C(=O)N[C@H](CCCNC(=N)N)C(=O)N[C@@H](Cc1c[nH]c2ccccc12)C(=O)N[C@@H](Cc1ccc(C(=O)c2ccccc2)cc1)C(=O)N1CCC[C@H]1C(=O)NNC(N)=O [BRU-2441, Sar-His-Trp-Ser-His-Darg-Trp-Bpa-Pro-azaGly-NH2] | ~2

Same assay, conditions: EFO-27 cells, competition with [125I-Tyr8]BRU-2477, 90 min

Row | SMILES | EC50 [nM]
17 | CN(CC(=O)N[C@@H](Cc1c[nH]cn1)C(=O)N[C@@H](Cc1c[nH]c2ccccc12)C(=O)N[C@@H](CO)C(=O)N[C@@H](Cc1c[nH]cn1)C(=O)N[C@H](CCCNC(=N)N)C(=O)N[C@@H](Cc1c[nH]c2ccccc12)C(=O)N[C@@H](Cc1ccc(C(=O)c2ccccc2)cc1)C(=O)N1CCC[C@H]1C(=O)NNC(N)=O)C(=O)CN1CCN(CC(=O)O)CCN(CC(=O)O)CCN(CC(=O)O)CC1 [BRU-2443] | 950
18 | N=C(N)NCCC[C@H](NC(=O)[C@@H](Cc1ccc2ccccc2c1)NC(=O)CN1CCN(CC(=O)O)CCN(CC(=O)O)CCN(CC(=O)O)CC1)C(=O)N[C@@H](Cc1c[nH]c2ccccc12)C(=O)N[C@@H](CO)C(=O)N[C@@H](Cc1c[nH]cn1)C(=O)N[C@H](CCCNC(=N)N)C(=O)N[C@@H](Cc1c[nH]c2ccccc12)C(=O)N[C@@H](Cc1ccc(C(=O)c2ccccc2)cc1)C(=O)N1CCC[C@H]1C(=O)NCC(=O)NCCCO [compound 2987] | 2300
19 | CCN=C(NCC)NCCCC[C@@H](NC(=O)[C@H](Cc1c[nH]cn1)NC(=O)[C@H](CO)NC(=O)[C@H](Cc1c[nH]c2ccccc12)NC(=O)[C@H](Cc1c[nH]cn1)NC(=O)CN(C)C(=O)CN1CCN(CC(=O)O)CCN(CC(=O)O)CCN(CC(=O)O)CC1)C(=O)N[C@@H](Cc1c[nH]c2ccccc12)C(=O)N[C@@H](Cc1ccc(C(=O)c2ccccc2)cc1)C(=O)N1CCC[C@H]1C(=O)NNC(N)=O [BRU-2880] | 8020

Same assay, conditions: Table 5: modifications of amino acids at positions 1 and 2; in vitro binding on EFO-27 cells

Row | SMILES | EC50 [nM]
20 | N=C(N)NCCC[C@@H](NC(=O)[C@H](Cc1c[nH]cn1)NC(=O)[C@H](CO)NC(=O)[C@H](Cc1c[nH]c2ccccc12)NC(=O)[C@H](Cc1c[nH]cn1)NC(=O)CNC(=O)CN1CCN(CC(=O)O)CCN(CC(=O)O)CCN(CC(=O)O)CC1)C(=O)N[C@@H](Cc1c[nH]c2ccccc12)C(=O)N[C@@H](Cc1ccc(C(=O)c2ccccc2)cc1)C(=O)N1CCC[C@H]1C(=O)NNC(N)=O [BRU-2733] | 1180
